Values quoted from earlier work, collected in patent US8372452B2, “Oral herbal composition for the treatment of oral candidiasis” (Piramal Life Sciences Limited, priority 2008, dated 2013).

Tested on: oral pathogens (Enterococcus faecalis, Streptococcus salivarius, Streptococcus mitis, Streptococcus mutans, Streptococcus sobrinus, Streptococcus sanguinis and …)
Settings: literature report, Silva M L et al. 2007

For (−)-cubebin, which “activity against oral pathogens (microorganisms)” value is on record?
The value was “exhibited activity”.
